Laboratory results taken from publication PMC5775429, “LY2087101 and dFBr share transmembrane binding sites in the (α4)3(β2)2 Nicotinic Acetylcholine Receptor” (Scientific Reports, 2018).
Where “and” joins values, the source holds several entries; their conditions need not be identical. Equal entries are not always repeated. Where two headings read alike, the source gives them in different places. Marks after values point to notes of the source that are not given here.

Experiments:
[1] = biological target: T1, (α4)3(β2)2 nAChR (Homo sapiens, UniProt P17787+P43681); conditions: cited from earlier work
T1 construct: expressed in transfected cells; host or cells: Xenopus laevis oocytes injected with cRNA

[2] = biological target: (α4T152I)3(β2)2 nAChR (Homo sapiens, UniProt P43681, T152I); design: method as in PMID 28446611; conditions: 10 µM ACh + 1 µM dFBr vs 10 µM ACh alone; data reported previously ref 29; cited from earlier work
[3] = system: animal model; design: method as in PMID 23712602, PMID 28446611, PMID 28809075, PMID 28105008; conditions: cited from earlier work
[4] = biological target: T2, (α4I275V)3(β2)2 nAChR (Homo sapiens, UniProt P17787+P43681, I275V); assay: Two-electrode voltage-clamp of ACh-induced currents in Xenopus oocytes; format: cell-based; conditions: for R, potentiation ratio (PR): 10 µM ACh + 1 µM PAM vs 10 µM ACh alone
T2 construct: expressed in transfected cells; host or cells: Xenopus laevis oocytes injected with cRNA
Method: (§1) For amino acid substitutions within the α4 nAChR subunit, point mutations were introduced into pSP64ployA plasmid with cDNA encoding for human α4 nAChR subunit with mutagenic primer pairs using the Quick Change II Site-Directed Mutagenesis Kit (Agilent Technologies) then confirmed by DNA sequencing (GENEWIZ, LLC, South Plainfield, NJ). cRNA transcripts suitable for oocyte expression were prepared in vitro from linearized plasmids [α3 (BamH1), α4 (AseI), β2 (PvuII), β4 (XhoI)] using mMESSAGE mMACHINE high yield capped RNA transcription kits (Ambion) and purified on NucAway Spin column (Invitrogen). cRNA concentration was determined by spectroscopy (Concentration (ug/ul) = Abs260 * 40), aliquoted and stored at −80 °C until used.
(§2) Ovarian lobules were surgically harvested from oocytes-positive female Xenopus laevis (NASCO, Fort Atkinson, WI) according to an animal use protocol approved by the Texas A&M Health Sciences Center Institutional Animals Care and Use Committee. The Texas A&M Health Sciences Center Research Facility is registered as an animal research facility with the United States Department of Agriculture and is fully accredited by the American Association for Accreditation of Laboratory Animal Care (AAALAC). For oocytes defolliculation, ovarian lobes were treated with 3 mg/ml collagenase type 2 (Worthington Biomedical, Lakewood, NJ) in Ca + 2-free buffer (85 mM NaCl, 2.5 mM KCl, 1 mM MgCl2, 5 mM HEPES, pH 7.6). Collagenase treatment was allowed to proceed for 3 hours at room temperature with gentle shaking then oocytes were washed several times with buffer to remove collagenase then with ND96-gentamicine buffer. Healthy Stage V and VI oocytes were visually selected and maintained at 18 °C in modified ND96-gentamicine buffer (96 mM NaCl, 2 mM KCl, 1.8 mM CaCl2, 1 mM MgCl2, 5 mM HEPES, 50 µg/ml gentamicin, pH 7.6). Oocytes were injected with 50–100 ng of the desired nAChR subunits cRNA mix at ratios of 8α:1β or 1α:8β to express nAChRs with subunit stoichiometries of 3α:2β (low agonist sensitivity) or 2α:3β (high agonist sensitivity), respectively.
(§3) Oocytes were continuously perfused with recording buffer (100 mM NaCl, 2 mM KCl, 1 mM CaCl2, 0.8 mM MgCl2, 1 mM EGTA, 10 mM Hepes, pH 7.5) except during periods of drug applications.

[5] = biological target: (α4C259F)3(β2)2 nAChR (Homo sapiens, UniProt P43681, C259F); assay: as above; format: cell-based; conditions: 10 µM ACh + 1 µM PAM vs 10 µM ACh alone
Method: as §1, §2, §3

[6] = biological target: T3, (α4V609A)3(β2)2 nAChR (Homo sapiens, UniProt P17787+P43681, V609A); assay: as above; format: cell-based; conditions: for R, potentiation ratio (PR): 10 µM ACh + 1 µM PAM vs 10 µM ACh alone
T3 construct: expressed in transfected cells; host or cells: Xenopus laevis oocytes injected with cRNA
Method: as §1, §2, §3

[7] = biological target: T4, (α4C254S)3(β2)2 nAChR (Homo sapiens, UniProt P17787+P43681, C254S); assay: as above; format: cell-based; conditions: for R, potentiation ratio (PR): 10 µM ACh + 1 µM PAM vs 10 µM ACh alone
T4 construct: expressed in transfected cells; host or cells: Xenopus laevis oocytes injected with cRNA
Method: as §1, §2, §3

[8] = biological target: T5, (α4I607T)3(β2)2 nAChR (Homo sapiens, UniProt P17787+P43681, I607T); assay: as above; format: cell-based; conditions: for R, potentiation ratio (PR): 10 µM ACh + 1 µM PAM vs 10 µM ACh alone
T5 construct: expressed in transfected cells; host or cells: Xenopus laevis oocytes injected with cRNA
Method: as §1, §2, §3

[9] = biological target: T6, (α4M605V)3(β2)2 nAChR (Homo sapiens, UniProt P17787+P43681, M605V); assay: as above; format: cell-based; conditions: for R, potentiation ratio (PR): 10 µM ACh + 1 µM PAM vs 10 µM ACh alone
T6 construct: expressed in transfected cells; host or cells: Xenopus laevis oocytes injected with cRNA
Method: as §1, §2, §3

[10] = biological target: (α4L311V)3(β2)2 nAChR (Homo sapiens, UniProt P43681, L311V); assay: as above; format: cell-based; conditions: 10 µM ACh + 1 µM PAM vs 10 µM ACh alone
Method: as §1, §2, §3

[11] = biological target: T7, (α4F312V)3(β2)2 nAChR (Homo sapiens, UniProt P17787+P43681, F312V); assay: as above; format: cell-based; conditions: for R, potentiation ratio (PR): 10 µM ACh + 1 µM PAM vs 10 µM ACh alone
T7 construct: expressed in transfected cells; host or cells: Xenopus laevis oocytes injected with cRNA
Method: as §1, §2, §3

[12] = biological target: (α4F316L)3(β2)2 nAChR (Homo sapiens, UniProt P43681, F316L); assay: as above; format: cell-based; conditions: for R, potentiation ratio (PR): 10 µM ACh + 1 µM PAM vs 10 µM ACh alone
Method: as §1, §2, §3

[13] = biological target: T8, (α4L291V)3(β2)2 nAChR (Homo sapiens, UniProt P17787+P43681, L291V); assay: as above; format: cell-based; conditions: for R, potentiation ratio (PR): 10 µM ACh + 1 µM PAM vs 10 µM ACh alone
T8 construct: expressed in transfected cells; host or cells: Xenopus laevis oocytes injected with cRNA
Method: as §1, §2, §3

[14] = biological target: (α4C259V)3(β2)2 nAChR (Homo sapiens, UniProt P43681, C259V); assay: as above; format: cell-based; conditions: 10 µM ACh + 1 µM PAM vs 10 µM ACh alone
Method: as §1, §2, §3

[15] = biological target: T9, (α4T313C)3(β2)2 nAChR (Homo sapiens, UniProt P17787+P43681, T313C); assay: as above; format: cell-based; conditions: for R, potentiation ratio (PR): 10 µM ACh + 1 µM PAM vs 10 µM ACh alone
T9 construct: expressed in transfected cells; host or cells: Xenopus laevis oocytes injected with cRNA
Method: as §1, §2, §3

[16] = biological target: T10, (α4L260M)3(β2)2 nAChR (Homo sapiens, UniProt P17787+P43681, L260M); assay: as above; format: cell-based; conditions: for R, potentiation ratio (PR): 10 µM ACh + 1 µM PAM vs 10 µM ACh alone
T10 construct: expressed in transfected cells; host or cells: Xenopus laevis oocytes injected with cRNA
Method: as §1, §2, §3

[17] = ACh concentration-response curve, normalized to 1 mM ACh alone
[18] = read-out: dFBr potentiation EC50
[19] = read-out: LY2087101 potentiation EC50
[20] = normalized to peak current by 10 µM ACh alone, curve fit

T4 sequence (P43681 29-627 C254S limits assumed): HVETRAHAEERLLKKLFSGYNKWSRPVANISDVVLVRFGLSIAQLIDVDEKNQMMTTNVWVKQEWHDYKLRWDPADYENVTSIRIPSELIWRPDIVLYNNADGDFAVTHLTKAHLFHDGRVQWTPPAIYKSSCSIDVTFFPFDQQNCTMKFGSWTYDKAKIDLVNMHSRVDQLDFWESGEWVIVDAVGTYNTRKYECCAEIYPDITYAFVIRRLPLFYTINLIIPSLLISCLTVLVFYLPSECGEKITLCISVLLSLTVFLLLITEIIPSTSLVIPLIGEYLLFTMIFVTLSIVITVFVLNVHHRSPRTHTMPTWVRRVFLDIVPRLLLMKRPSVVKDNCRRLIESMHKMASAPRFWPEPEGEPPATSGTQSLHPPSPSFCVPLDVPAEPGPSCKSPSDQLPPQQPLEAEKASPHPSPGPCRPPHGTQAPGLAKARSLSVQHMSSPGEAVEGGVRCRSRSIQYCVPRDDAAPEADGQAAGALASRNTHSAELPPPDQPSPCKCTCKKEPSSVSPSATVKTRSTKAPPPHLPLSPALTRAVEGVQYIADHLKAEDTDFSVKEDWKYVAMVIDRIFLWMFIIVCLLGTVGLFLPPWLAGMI
T4 sequence (P17787 26-502): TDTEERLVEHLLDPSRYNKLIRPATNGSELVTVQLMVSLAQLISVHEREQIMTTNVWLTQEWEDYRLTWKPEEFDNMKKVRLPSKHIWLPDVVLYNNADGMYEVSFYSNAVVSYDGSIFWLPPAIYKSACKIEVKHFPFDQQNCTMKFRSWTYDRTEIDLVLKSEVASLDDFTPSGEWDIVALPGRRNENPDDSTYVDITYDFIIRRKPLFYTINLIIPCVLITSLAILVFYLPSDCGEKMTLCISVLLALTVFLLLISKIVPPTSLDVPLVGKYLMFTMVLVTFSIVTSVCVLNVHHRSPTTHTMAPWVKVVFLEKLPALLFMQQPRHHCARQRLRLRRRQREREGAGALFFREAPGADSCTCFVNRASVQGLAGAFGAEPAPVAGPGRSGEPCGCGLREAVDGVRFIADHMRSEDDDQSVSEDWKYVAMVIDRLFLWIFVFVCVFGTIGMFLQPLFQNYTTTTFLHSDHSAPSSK
(α4F316L)3(β2)2 nAChR, sequence (P43681 29-627 F316L limits assumed): as the sequence (P43681 29-627 C254S limits assumed) above, with S226C, F288L counted along it
(α4F316L)3(β2)2 nAChR, sequence (P17787 26-502 partner): as the sequence (P17787 26-502) above
T6 sequence (P43681 29-627 M605V limits assumed): as the sequence (P43681 29-627 C254S limits assumed) above, with S226C, M577V counted along it
T6 sequence (P17787 26-502): as the sequence (P17787 26-502) above
T7 sequence (P43681 29-627 F312V limits assumed): as the sequence (P43681 29-627 C254S limits assumed) above, with S226C, F284V counted along it
T7 sequence (P17787 26-502): as the sequence (P17787 26-502) above
T10 sequence (P43681 29-627 L260M limits assumed): as the sequence (P43681 29-627 C254S limits assumed) above, with S226C, L232M counted along it
T10 sequence (P17787 26-502): as the sequence (P17787 26-502) above
T9 sequence (P43681 29-627 T313C limits assumed): as the sequence (P43681 29-627 C254S limits assumed) above, with S226C, T285C counted along it
T9 sequence (P17787 26-502): as the sequence (P17787 26-502) above
T2 sequence (P43681 29-627 I275V limits assumed): as the sequence (P43681 29-627 C254S limits assumed) above, with S226C, I247V counted along it
T2 sequence (P17787 26-502): as the sequence (P17787 26-502) above
T3 sequence (P43681 29-627 V609A limits assumed): as the sequence (P43681 29-627 C254S limits assumed) above, with S226C, V581A counted along it
T3 sequence (P17787 26-502): as the sequence (P17787 26-502) above
T8 sequence (P43681 29-627 L291V limits assumed): as the sequence (P43681 29-627 C254S limits assumed) above, with S226C, L263V counted along it
T8 sequence (P17787 26-502): as the sequence (P17787 26-502) above
T5 sequence (P43681 29-627 I607T limits assumed): as the sequence (P43681 29-627 C254S limits assumed) above, with S226C, I579T counted along it
T5 sequence (P17787 26-502): as the sequence (P17787 26-502) above
(α4L311V)3(β2)2 nAChR, sequence (P43681 29-627 L311V limits assumed): as the sequence (P43681 29-627 C254S limits assumed) above, with S226C, L283V counted along it
(α4L311V)3(β2)2 nAChR, sequence (P17787 26-502 partner): as the sequence (P17787 26-502) above
(α4C259V)3(β2)2 nAChR, sequence (P43681 29-627 C259V limits assumed): as the sequence (P43681 29-627 C254S limits assumed) above, with S226C, C231V counted along it
(α4C259V)3(β2)2 nAChR, sequence (P17787 26-502 partner): as the sequence (P17787 26-502) above
(α4C259F)3(β2)2 nAChR, sequence (P43681 29-627 C259F limits assumed): as the sequence (P43681 29-627 C254S limits assumed) above, with S226C, C231F counted along it
(α4C259F)3(β2)2 nAChR, sequence (P17787 26-502 partner): as the sequence (P17787 26-502) above
T1 sequence (P43681 29-627 limits assumed): as the sequence (P43681 29-627 C254S limits assumed) above, with S226C counted along it
T1 sequence (P17787 26-502): as the sequence (P17787 26-502) above
(α4T152I)3(β2)2 nAChR, sequence (P43681 29-627 T152I limits assumed): as the sequence (P43681 29-627 C254S limits assumed) above, with T124I, S226C counted along it
(α4T152I)3(β2)2 nAChR, sequence (P17787 26-502 partner): as the sequence (P17787 26-502) above

Q: What does the source list for `C=CC(C)(C)c1[nH]c2cc(Br)ccc2c1CCNC` [dFBr]?
A: increase in ACh efficacy (Imax) by dFBr ([1]; ACh concentration-response curve): ~ 4 fold; dFBr maximal potentiation [1]: 400%; R, potentiation ratio (PR) [2]: 2.6 ± 0.4^a; nicotine self-administration [3]: reduce nicotine self-administration; R, potentiation ratio (PR) [4]: 4.0 ± 0.6; R, potentiation ratio (PR) [5]: 3.1 ± 0.3; R, potentiation ratio (PR) [6]: 3.2 ± 0.2; R, potentiation ratio (PR) [7]: 3.6 ± 0.4; ACh Imax in the presence of 1 µM dFBr [7, 17]: 190 ± 08%; dFBr potentiation h (Hill coefficient) ([7]; co-applied with 10 μM ACh): 0.8 ± 0.1; dFBr potentiation Imax ([7]; normalized to 10 µM ACh alone): 430 ± 31%; EC50 [7, 18]: 1500 ± 500 nM; R, potentiation ratio (PR) [8]: 4.7 ± 2.1; R, potentiation ratio (PR) [9]: 5.3 ± 1.2; R, potentiation ratio (PR) [10]: 5.8 ± 1.4; R, potentiation ratio (PR) [11]: 1.2 and ~ 1.2 and 1.2 ± 0.1; dFBr concentration-dependent potentiation of ACh-current responses ([11]; dFBr up to 10 µM, 10 μM ACh): did not potentiate; R, potentiation ratio (PR) [12]: 1.2 and ~ 1.2 and 1.2 ± 0.1; ACh Imax in the presence of 1 µM dFBr [12, 17]: 148 ± 12%; dFBr concentration-dependent potentiation of ACh-current responses ([12]; dFBr up to 10 µM, 10 μM ACh): did not potentiate; R, potentiation ratio (PR) [13]: 3.5 ± 0.2; dFBr potentiation h (Hill coefficient) ([13]; co-applied with 10 μM ACh): 0.8 ± 0.2; dFBr potentiation Imax ([13]; normalized to 10 µM ACh alone): 600 ± 136%; EC50 [13, 18]: 2900 ± 1900 nM; R, potentiation ratio (PR) [14]: 4.6 ± 0.9; R, potentiation ratio (PR) [15]: 3.9 ± 0.4; R, potentiation ratio (PR) [16]: 3.6 ± 0.4; ACh Imax in the presence of 1 µM dFBr [16, 17]: 250 ± 36%

Q: With `Cc1nc(Nc2ccc(F)cc2)sc1C(=O)c1ccsc1` [LY2087101, [2-[(4-Fluorophenyl)amino]-4-methyl-5-thiazolyl]-3-thienylmethanone] as the compound, how does the “R, potentiation ratio (PR)” value [4] read?
A: 3.7 ± 0.5

Q: And the EC50 [4, 19]?
A: 1700 ± 200 nM

Q: And the “R, potentiation ratio (PR)” value [5]?
A: 3.2 ± 0.4

Q: What about the “R, potentiation ratio (PR)” value [6] of the same compound?
A: 5.7 ± 1.1

Q: What about the EC50 [6, 19] of the same compound?
A: 1000 ± 300 nM

Q: What about the “R, potentiation ratio (PR)” value [7] of the same compound?
A: 8.4 ± 1.5

Q: What about the “ACh Imax in the presence of 1 µM LY2087101” value (shortened to “ACh Imax … of 1 µM LY2087101”) [7, 17] of the same compound?
A: 185 ± 04%

Q: What about the EC50 [7, 19] of the same compound?
A: 1700 ± 200 nM

Q: And the “R, potentiation ratio (PR)” value [8]?
A: 5.8 ± 0.7

Q: What about the “LY2087101 potentiation Imax%” value [8, 20] of the same compound?
A: 958 ± 32%

Q: And the EC50 [8, 19]?
A: 800 ± 100 nM

Q: What about the “R, potentiation ratio (PR)” value [9] of the same compound?
A: 3.8 ± 1.1

Q: And the “LY2087101 potentiation Imax%” value [9, 20]?
A: 856 ± 3%

Q: And the EC50 [9, 19]?
A: 2700 ± 20 nM

Q: And the “R, potentiation ratio (PR)” value [10]?
A: 15.6 ± 3.2

Q: And the “R, potentiation ratio (PR)” value [11]?
A: 2.5 ± 0.2

Q: What about the “LY2087101 potentiation Imax%” value ([11]; normalized to 10 µM ACh alone, not from curve fitting, maximum seen at any concentration up to 10 µM LY2087101) of the same compound?
A: 269 ± 43%

Q: And the EC50 [11, 19]?
A: 100 ± 10 nM

Q: What about the “R, potentiation ratio (PR)” value [12] of the same compound?
A: 1.1 ± 0.1

Q: And the “ACh Imax … of 1 µM LY2087101” value [12, 17]?
A: 122 ± 13%

Q: And the “R, potentiation ratio (PR)” value [13]?
A: 3.7 ± 0.6

Q: And the “LY2087101 potentiation Imax%” value [13, 20]?
A: 719 ± 20%

Q: What about the EC50 [13, 19] of the same compound?
A: 1600 ± 100 nM

Q: What about the “R, potentiation ratio (PR)” value [14] of the same compound?
A: 5.2 ± 0.6

Q: And the “R, potentiation ratio (PR)” value [15]?
A: 2.1 ± 0.2

Q: What about the “LY2087101 potentiation Imax%” value [15, 20] of the same compound?
A: 196 ± 23%

Q: What about the EC50 [15, 19] of the same compound?
A: 700 ± 100 nM

Q: What about the “R, potentiation ratio (PR)” value [16] of the same compound?
A: 1.6 ± 0.2

Q: What about the “ACh Imax … of 1 µM LY2087101” value [16, 17] of the same compound?
A: 264 ± 80%

Q: And the “LY2087101 potentiation Imax%” value [16, 20]?
A: 269 ± 21%

Q: What about the EC50 [16, 19] of the same compound?
A: 2500 ± 600 nM
